Measured values from ChEMBL document CHEMBL3045128, “Borrelidin, a potent antifungal agent: insight into the antifungal mechanism against Phytophthora sojae” (J Agric Food Chem, 2012).
≈ marks a conversion by molar mass, not a printed value. Calls of active or inactive are those of the source. The rule behind the calls is not given here.

Assays:
[1] = target: T1, Threonyl-tRNA synthase (Phytophthora sojae) (UniProt G3FIN0); test: Binding affinity to C-terminal His6-tagged Phytophthora sojae race 1 recombinant ThrRS expressed in Escherichia coli BL21 (Codonplus DE3) at 20 to 200 uM at 27 to 47 degC after 30 min by fluorescence quenching assay
T1 sequence (whole entry): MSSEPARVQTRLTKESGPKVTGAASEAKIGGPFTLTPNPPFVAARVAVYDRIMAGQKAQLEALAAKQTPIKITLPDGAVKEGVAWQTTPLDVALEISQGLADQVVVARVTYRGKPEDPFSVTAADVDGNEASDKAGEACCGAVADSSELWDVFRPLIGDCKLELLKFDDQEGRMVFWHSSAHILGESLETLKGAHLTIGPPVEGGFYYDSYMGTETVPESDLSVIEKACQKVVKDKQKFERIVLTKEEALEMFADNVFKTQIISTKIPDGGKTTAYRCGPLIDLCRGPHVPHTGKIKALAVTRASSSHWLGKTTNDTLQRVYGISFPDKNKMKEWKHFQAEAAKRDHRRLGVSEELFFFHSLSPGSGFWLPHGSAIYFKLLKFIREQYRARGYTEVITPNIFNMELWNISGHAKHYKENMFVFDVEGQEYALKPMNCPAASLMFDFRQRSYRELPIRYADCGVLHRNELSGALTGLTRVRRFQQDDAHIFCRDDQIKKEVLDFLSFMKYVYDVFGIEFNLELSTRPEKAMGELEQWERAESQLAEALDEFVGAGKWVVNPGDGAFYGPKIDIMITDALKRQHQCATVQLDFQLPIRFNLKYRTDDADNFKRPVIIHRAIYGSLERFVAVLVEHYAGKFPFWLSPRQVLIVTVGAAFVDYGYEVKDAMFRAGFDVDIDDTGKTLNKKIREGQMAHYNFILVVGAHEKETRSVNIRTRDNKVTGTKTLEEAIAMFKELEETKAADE

[2] = target: T1, Threonyl-tRNA synthase (Phytophthora sojae); test: Binding affinity to C-terminal His6-tagged Phytophthora sojae race 1 recombinant ThrRS expressed in Escherichia coli BL21 (Codonplus DE3) assessed as Stern-Volmer quenching constant at 47 degC by fluorescence spectroscopy
[3] = test system: Phytophthora sojae; test: Antifungal activity against Phytophthora sojae race 1 assessed as radial growth inhibition at 0.008 ug/ml incubated at 28 degC in the dark for 6 to 8 days in presence of 0.2 to 0.6 mM L-aspargine; assay type: functional, organism-based
[4] = target: T1, Threonyl-tRNA synthase (Phytophthora sojae); test: Binding affinity to C-terminal His6-tagged Phytophthora sojae race 1 recombinant ThrRS expressed in Escherichia coli BL21 (Codonplus DE3) assessed as increase in alpha helicity of the protein at protein to compound ratio of 1:1 by CD spectroscopy (reference value: 18.3%)
[5] = test system: Pythium; test: Antifungal activity against Pythium species; assay type: functional, organism-based
[6] = target: T1, Threonyl-tRNA synthase (Phytophthora sojae); test: Binding affinity to C-terminal His6-tagged Phytophthora sojae race 1 recombinant ThrRS expressed in Escherichia coli BL21 (Codonplus DE3) assessed as quenching rate constant at 47 degC by fluorescence spectroscopy
[7] = target: T1, Threonyl-tRNA synthase (Phytophthora sojae); test: Binding affinity to C-terminal His6-tagged Phytophthora sojae race 1 recombinant ThrRS expressed in Escherichia coli BL21 (Codonplus DE3) assessed as equilibrium binding constant by fluorescence spectroscopy
[8] = target: T1, Threonyl-tRNA synthase (Phytophthora sojae); test: Binding affinity to C-terminal His6-tagged Phytophthora sojae race 1 recombinant ThrRS expressed in Escherichia coli BL21 (Codonplus DE3) assessed as quenching rate constant at 37 degC by fluorescence spectroscopy
[9] = target: T1, Threonyl-tRNA synthase (Phytophthora sojae); test: Binding affinity to C-terminal His6-tagged Phytophthora sojae race 1 recombinant ThrRS expressed in Escherichia coli BL21 (Codonplus DE3) assessed as decrease in beta sheet content of the protein at protein to compound ratio of 1:5 by CD spectroscopy (reference value: 25.6%); set-up: scale not given: the % may be the effect or the level left
[10] = test system: Phytophthora sojae; test: Antifungal activity against Phytophthora sojae race 1 assessed as radial growth inhibition at 0.008 ug/ml incubated at 28 degC in the dark for 6 to 8 days in presence of 0.2 to 0.6 mM alanine; assay type: functional, organism-based
[11] = test system: Phytophthora sojae; test: Antifungal activity against Phytophthora sojae race 1 assessed as radial growth inhibition at 0.008 ug/ml incubated at 28 degC in the dark for 6 to 8 days in presence of 0.2 to 0.6 mM tyrosine; assay type: functional, organism-based
[12] = target: T1, Threonyl-tRNA synthase (Phytophthora sojae); test: Binding affinity to C-terminal His6-tagged Phytophthora sojae race 1 recombinant ThrRS expressed in Escherichia coli BL21 (Codonplus DE3) assessed as Stern-Volmer quenching constant at 37 degC by fluorescence spectroscopy
[13] = target: T1, Threonyl-tRNA synthase (Phytophthora sojae); test: Binding affinity to C-terminal His6-tagged Phytophthora sojae race 1 recombinant ThrRS expressed in Escherichia coli BL21 (Codonplus DE3) assessed as static fluorescence quenching by FRET analysis
[14] = target: T1, Threonyl-tRNA synthase (Phytophthora sojae); test: Binding affinity to C-terminal His6-tagged Phytophthora sojae race 1 recombinant ThrRS expressed in Escherichia coli BL21 (Codonplus DE3) assessed as decrease in beta sheet content of the protein at protein to compound ratio of 1:1 by CD spectroscopy (reference value: 25.6%); set-up: scale not given: the % may be the effect or the level left
[15] = target: T1, Threonyl-tRNA synthase (Phytophthora sojae); test: Binding affinity to C-terminal His6-tagged Phytophthora sojae race 1 recombinant ThrRS expressed in Escherichia coli BL21 (Codonplus DE3) assessed as positive entropy and enthalpy changes by themodynamic analysis
[16] = target: T1, Threonyl-tRNA synthase (Phytophthora sojae); test: Binding affinity to C-terminal His6-tagged Phytophthora sojae race 1 recombinant ThrRS expressed in Escherichia coli BL21 (Codonplus DE3) assessed as quenching rate constant at 27 degC by fluorescence spectroscopy
[17] = test system: Phytophthora sojae; test: Antifungal activity against Phytophthora sojae race 1 assessed as radial growth inhibition at 0.006 ug/ml incubated at 28 degC in the dark for 6 to 8 days in presence of 0.6 mM threonine; assay type: functional, organism-based
[18] = target: T1, Threonyl-tRNA synthase (Phytophthora sojae); test: Binding affinity to C-terminal His6-tagged Phytophthora sojae race 1 recombinant ThrRS expressed in Escherichia coli BL21 (Codonplus DE3) assessed as increase in alpha helicity of the protein at protein to compound ratio of 1:5 by CD spectroscopy (reference value: 18.3%)
[19] = target: T1, Threonyl-tRNA synthase (Phytophthora sojae); test: Binding affinity to C-terminal His6-tagged Phytophthora sojae race 1 recombinant ThrRS expressed in Escherichia coli BL21 (Codonplus DE3) assessed as Stern-Volmer quenching constant at 27 degC by fluorescence spectroscopy
[20] = target: T2, Threonyl-tRNA synthase (Phytophthora sojae, UniProt G3FIN0); test: Inhibition of C-terminal His6-tagged Phytophthora sojae race 1 recombinant ThrRS expressed in Escherichia coli BL21 (Codonplus DE3) assessed as reduction in initial velocity at the step of threonine activation preincubated for 10 min with 4 uM enzyme before threonine addition measured after 30 min by HPLC analysis
T2 sequence (G3FIN0 whole entry): T1 sequence (whole entry)

[21] = test system: Phytophthora sojae; test: Antifungal activity against Phytophthora sojae race 1 assessed as radial growth inhibition at 0.008 ug/ml incubated at 28 degC in the dark for 6 to 8 days in presence of 0.2 to 0.6 mM glutamine; assay type: functional, organism-based

## C[C@@H]1C[C@H](C)C[C@H](C)[C@@H](O)CC(=O)O[C@H]([C@@H]2CCC[C@H]2C(=O)O)C/C=C/C=C(/C#N)[C@H](O)[C@@H](C)C1 [BORRELIDIN]
[1]
  Activity: Active
[2]
  KSV: 1.23 ×10⁴ /M
[3]
  growth inhibition (GI): Active
[4]
  Activity: 24.4%
[5]
  EC50: 0.01 µg/mL (≈ 0.0204 µM)
[6]
  Kq: 1.23 ×10¹² L/mol/s
[7]
  KA: 2.55 ×10⁵ /M
[8]
  Kq: 1.33 ×10¹² L/mol/s
[9]
  Activity: 21.8%
[10]
  growth inhibition (GI): Active
[11]
  growth inhibition (GI): Active
[12]
  KSV: 1.33 ×10⁴ /M
[13]
  Activity: Active
[14]
  Activity: 22.4%
[15]
  Activity: Active
[16]
  Kq: 1.54 ×10¹² L/mol/s
[17]
  growth inhibition (GI): inactive
[18]
  Activity: 25.7%
[19]
  KSV: 1.54 ×10⁴ /M
[20]
  IC50: 8 µM
[20]; read-out: Ki(app)
  Ki: 10 µM
[21]
  growth inhibition (GI): Active
